# From the supplement of paper PMC13380429
# ± gives the standard deviation of the averaged measurements.
# Columns and labels:
# Settings in all cases: 72 h
# [1] = tested on: Calu-3; assay: drug sensitivity score (DSS) for viability; higher = more toxic; extreme values may be limits of the assay
# [2] = tested on: Caco-2; assay: as above
# [3] = tested on: U2OS; assay: as above
# [4] = tested on: HepG2; assay: as above
# [5] = tested on: Vero E6; assay: as above
# [6] = tested on: Calu-3; assay: cell viability relative to DMSO; higher = less toxic
# [7] = tested on: Caco-2; assay: as above
# [8] = tested on: U2OS; assay: as above
# [9] = tested on: HepG2; assay: as above
# [10] = tested on: Vero E6; assay: as above
# [11] = tested on: Calu-3; assay: relative viability EC50 (midpoint between 100% and the lowest measured viability); higher = less toxic
# [12] = tested on: Caco-2; assay: as above
# [13] = tested on: U2OS; assay: as above
# [14] = tested on: HepG2; assay: as above
# [15] = tested on: Vero E6; assay: as above
SMILES,drug sensitivity score [1],drug sensitivity score [2],drug sensitivity score [3],drug sensitivity score [4],drug sensitivity score [5],cell viability ([6]; 1 nM) [%],cell viability ([6]; 10 nM) [%],cell viability ([6]; 100 nM) [%],cell viability ([6]; 1000 nM) [%],cell viability ([6]; 10000 nM) [%],cell viability ([7]; 1 nM) [%],cell viability ([7]; 10 nM) [%],cell viability ([7]; 100 nM) [%],cell viability ([7]; 1000 nM) [%],cell viability ([7]; 10000 nM) [%],cell viability ([8]; 1 nM) [%],cell viability ([8]; 10 nM) [%],cell viability ([8]; 100 nM) [%],cell viability ([8]; 1000 nM) [%],cell viability ([8]; 10000 nM) [%],cell viability ([9]; 1 nM) [%],cell viability ([9]; 10 nM) [%],cell viability ([9]; 100 nM) [%],cell viability ([9]; 1000 nM) [%],cell viability ([9]; 10000 nM) [%],cell viability ([10]; 1 nM) [%],cell viability ([10]; 10 nM) [%],cell viability ([10]; 100 nM) [%],cell viability ([10]; 1000 nM) [%],cell viability ([10]; 10000 nM) [%],relative viability EC50 [11] [µM],relative viability EC50 [12] [µM],relative viability EC50 [13] [µM],relative viability EC50 [14] [µM],relative viability EC50 [15] [µM]
CC(C)C[C@H](NC(=O)N1CCCCCC1)C(=O)N[C@H](Cc1cn(C)c2ccccc12)C(=O)N[C@H](Cc1ccccn1)C(=O)O,0,0,0,0,0,109,95.2,97.9,106,112,100,82.5,92.1,99.9,91.2,99.1,94.4,96.4,99,97.9,94.5,111,99,101,89.8,95,97,100,98.9,98.5,> 10,> 10,> 10,> 10,> 10
CCCCCCCCC(=O)N[C@H](CN1CCCC1)[C@H](O)c1ccc2c(c1)OCCO2,0,0,0,0,0,109,94.9,92.2,92,94.8,101,94.9,102,111,98.9,101,102,105,98.5,102,96.8,105,105,106,104,91.9,97.2,87.7,90.4,95.4,> 10,> 10,> 10,> 10,> 10
CCCCN1CCC(CCC(=O)c2cc(Cl)c(N)cc2OC)CC1,0,0,0,2.4,0,101,99.5,101,98.3,109,104,100,97.3,92.7,95.2,104,93.6,95.8,92.7,94.1,95.5,98.2,96.9,82.8,83.5,101,102,99.2,101,94.1,> 10,> 10,> 10,> 10,> 10
CCCCOCCOc1nc(-c2ccc(C(=O)O)c(F)c2)sc1C,1,0.4,0.1,0,0,109,104,109,89.8,84.8,94.1,97.2,94.6,100,82,103,102,96.5,89.6,90.1,97.5,104,105,102,102,100,99.7,97.5,99.9,90.8,> 10,> 10,> 10,> 10,> 10
CCOc1c2c(c(OCC)c3ccccc13)C(=O)N(c1ccc(CC(=O)NS(=O)(=O)c3ccccc3)cc1)C2,0,0,0,0,0,94,98.6,102,98.1,98.2,96.3,94.8,97.7,90.3,89.8,99.4,100,96.4,98.9,97.2,97.6,87,104,93.1,104,96,95.1,97.9,89.1,101,> 10,> 10,> 10,> 10,> 10
CC[C@@H](c1ccc(F)c(F)c1)n1c(C(=O)OC)c(-c2ccno2)[nH]c1=S,0,0,0,0,0,96.1,95.1,98.6,91.3,99.8,97.9,98.3,98.4,96.9,94.2,99.7,94,98.9,96,95.7,115,98.8,93.3,99.7,90.4,103,95.4,97.8,99.9,96.7,> 10,> 10,> 10,> 10,> 10
CN(C)C(=O)[C@H](O)[C@H](Cc1ccccc1)NC(=O)c1cc2cc(Cl)ccc2[nH]1,0,0,0,0,0,96.2,104,97,102,102,87.2,97,96.2,106,96.8,95.4,102,90.5,95.3,97,103,96,106,105,106,108,94.6,102,98.3,106,> 10,> 10,> 10,> 10,> 10
CN1C(=O)N(c2cc(Cl)cc(Cl)c2)C(=O)[C@]12CN(c1ccc(C(=O)O)cn1)C[C@H]2c1ccc(C#N)cc1,0,0,0,0,0,104,90.8,93.7,111,107,93.9,98.4,97.5,89,97.3,98.8,96.5,100,101,94.4,104,93.1,91.5,96.9,106,99.4,102,101,93.7,103,> 10,> 10,> 10,> 10,> 10
CN1CCN(c2nc3ccccc3nc2Cl)CC1,0,0,0,0,0,93.4,105,106,92.4,98.3,89.4,90.5,98.3,88.4,91.6,95.9,97.6,99,103,96.3,97.2,92.9,104,93,95.9,101,102,103,94.2,97.5,> 10,> 10,> 10,> 10,> 10
Cc1c(Cc2ccc3ccccc3n2)c2cc(F)ccc2n1CC(=O)O,0,0,0,0,0,95.8,108,96.8,110,111,94.6,99.4,98.7,98.4,109,94.7,101,95.4,97.9,108,119,96.9,109,108,105,102,96.7,99.5,97.8,101,> 10,> 10,> 10,> 10,> 10
NC(=O)CCCCn1ccc(/N=C(\N)NCC(F)(F)F)n1,0,0,0,0,0,110,96.5,107,99.4,102,98.8,97.8,104,92.6,97.6,98.8,104,104,99.9,99.5,103,97.7,98.1,105,105,106,103,104,102,99.7,> 10,> 10,> 10,> 10,> 10
Nc1c(S(=O)(=O)O)cc(Nc2cccc3ccccc23)c2c1C(=O)c1ccccc1C2=O,0,0.1,0.8,1,0,101,95.8,91.5,101,93.2,91.3,97.8,101,89.7,90.1,94.1,98.4,95.3,95.4,81.8,103,91.1,91.1,90,86.8,94.2,98.3,97.3,93.7,86.7,> 10,> 10,> 10,> 10,> 10
O=C(Nc1ccccc1)Nc1ccc(-c2ccc(C(=O)[C@@H]3CCC[C@@H]3C(=O)O)cc2)cc1,0,0.4 ± 0.42,0,0.35 ± 0.49,0,111 ± 3,103.8 ± 0.85,97.2 ± 1.4,98.2 ± 5.6,108 ± 1.9,99.05 ± 0.78,95.8 ± 1.6,94.35 ± 0.35,97 ± 13,85.6 ± 0.28,98.5 ± 1.5,98.6 ± 5.8,100 ± 1.3,101 ± 2,94.2 ± 2.1,105.2 ± 0.49,96.4 ± 1.4,95.5 ± 10,92.2 ± 7,97.1 ± 7.3,101 ± 3.9,98.7 ± 1.1,98.45 ± 0.35,94.3 ± 2.8,95.1 ± 0.57,> 10,> 10,> 10,> 10,> 10
O=C(O)CCc1ccc(NCc2cccc3c2CCCN3CCOc2ccccc2)cc1F,0,0,0,0,0,93.2,97.4,91.6,94.8,99.6,106,96.2,101,106,96.4,101,96.5,99,97.4,104,97.9,101,100,100,95,97.5,98.2,97.4,98.6,96,> 10,> 10,> 10,> 10,> 10
